From US20090137664A1, “SAURURUS CERNUUS COMPOUNDS THAT INHIBIT CELLULAR RESPONSES TO HYPOXIA” (priority 2003, published 2009)
Read-outs that look alike come from different tables or passages of the source. Values belong to the molecule of their own block, whether it stands above or below them.

Tests used:
HIF-1 [1] = assay: pTK-HRE3-luc reporter assay, hypoxia-induced HIF-1 activation in T47D cells
secreted VEGF protein [2] = assay: hypoxic induction of secreted VEGF protein in T47D cells (ELISA); format: cell-based, human; settings: for concentration at which hypoxic induction of secreted VEGF protein is completely blocked / inhibition of VEGF protein levels relative to the hypoxia-induced positive control: 12-well; for inhibition of VEGF protein levels relative to the hypoxia-induced positive control: p<0.01; for reduction of secreted VEGF protein induced by hypoxia: 96-well, 1 at 100 nM, 2 at 10 nM, PD98059 at 100 μM
Method: (§1) The effects of compounds 1 and 2 on hypoxic induction of secreted VEGF protein are examined in T47D cells. Exponentially grown T47D cells are plated at the density of 30,000 cells/well into 96-well plates. Compound treatment and hypoxic exposure are the same as described. Following incubation, the concentration of secreted VEGF protein in the conditioned media is determined by ELISA (R & D Systems) and the data normalized by the number of viable cells. Results shown in FIG. 4 are averages from a representative experiment performed in quadruplicate, the bars represent standard error. An asterisk (*) indicates the level of significance (p<0.01) relative to the hypoxic control, two asterisks (**) (p<0.0001), and no asterisk indicates no statistical difference (ANOVA and Fisher's PLSD post hoc test).
As discussed earlier, one important HIF-1 target gene is VEGF, a key factor for tumor angiogenesis. Compounds that can inhibit both HIF-1 activation and the production of secreted VEGF protein represent potential efficacious chemotherapeutic agents that inhibit both tumor survival and hypoxia induced angiogenesis. The effects of four active examples (compounds 2, 3, 4, and 5) on hypoxic induction of secreted VEGF protein are examined in T47D cells and the data are presented in FIG. 9. Exponentially grown T47D cells are plated at the density of 356,000 cells/well into 12-well plates. Compound treatment and hypoxic exposure are the same as described. Following incubation, the concentration of secreted VEGF protein in the conditioned media is determined by ELISA (R & D Systems) and the data normalized by the number of viable cells. […] Hypoxic exposure leads to a 2-fold increase in the level of secreted VEGF protein. […] The level of significance (p<0.01) is determined by ANOVA and Fisher's PLSD post hoc test. The exemplary compounds 2, 3, and 4 all completely block hypoxic induction of secreted VEGF protein at concentrations as low as 10 nM. The exemplary compound 5 inhibits the hypoxic induction by 60% at 10 nM, and completely blocks at 100 nM. When tested at 100 nM, none of the compounds interfere with the ELISA assay using VEGF standard (no greater than 15% difference).

[3] = biological target: T1, recombinant VEGF protein standard (Homo sapiens, UniProt P15692); assay: interference with the VEGF ELISA using VEGF standard
T1 construct: purchased R & D Systems
Method: as §1
As discussed earlier, one important HIF-1 target gene is VEGF, a key factor for tumor angiogenesis. Compounds that can inhibit both HIF-1 activation and the production of secreted VEGF protein represent potential efficacious chemotherapeutic agents that inhibit both tumor survival and hypoxia induced angiogenesis. […] Following incubation, the concentration of secreted VEGF protein in the conditioned media is determined by ELISA (R & D Systems) and the data normalized by the number of viable cells. […] The level of significance (p<0.01) is determined by ANOVA and Fisher's PLSD post hoc test. […]

HIF-1 [4] = assay: pTK-HRE3-luc reporter assay, 1,10-phenanthroline-induced HIF-1 activation in T47D cells; format: cell-based; settings: Homo sapiens, read-out: inhibition of HIF-1 activation by 1,10-phenanthroline, 1 μM
Description: Iron chelators and transition metals (such as cobalt and nickel) can activate HIF-1 and have been used as chemical hypoxia mimetics. […] The expression of the HIF-1α subunit quantitatively determines HIF-1 biological activity (activation of transcription).

pGL3 Control = assay: luciferase expression from control plasmid pGL3 Control; format: cell-based, human
Method: The chemical structures of active compounds 1 and 2 are shown above. Compound 2 is the known compound manassantin B and 1 is a novel compound of the present invention. […] Similar results are obtained from separate experiments. The IC50 is 3 nM for 2 and 30 nM for 1. Complete inhibition is observed at 10 nM for 2 and 100 nM for 1.

T47D cells = assay: T47D cell viability / cytotoxicity; format: cell-based, human
secreted VEGF protein [5] = assay: induction of secreted VEGF protein by 1,10-phenanthroline in T47D cells (ELISA); format: cell-based, human; settings: 10 μM, 16 hr
Method: Cell plating and compound treatment is similar to those described earlier for hypoxic conditions. […] At the end of the incubation, the concentration of secreted VEGF protein in the conditioned media is determined by ELISA and the data normalized by the number of viable cells.

HIF-1β protein = assay: Western blot, HIF-1β protein in T47D nuclear extract; format: cell-based, human
Method: Due to the low abundance of HIF-1α protein in whole cell extract, nuclear extract is prepared and the level of HIF-1α protein in the nuclear extract determined by Western blot. Briefly, exponentially grown T47D cells are exposed to compound 2 for 30 minutes. […] Nuclear extracts are prepared from control and treated cells, separated on a SDS/PAGE gel, the separated proteins transferred to a nitrocellulose membrane, incubated with the primary antibodies (anti-HIF-1α, and anti-HIF-1β monoclonal antibodies, Novus Biologicals), secondary antibody biotinylated anti-mouse immunoglobulin G and Vectastain ABC reagent (Vector Laboratories), and developed using ECL reagents (Amersham Biosciences). […] No change in HIF-1β protein level is observed across the treatments. It is reasonable to conclude that the selectivity of compound 2 towards hypoxia-activated HIF-1 is caused by selective blockade of the hypoxic induction of HIF-1 protein.

[6] = T47D cell viability / cytotoxicity; format: cell-based, human; settings: human; 100 μM; read-out: reduction of T47D cell viability

T1 sequence (P15692 27-191 isoform P15692-4): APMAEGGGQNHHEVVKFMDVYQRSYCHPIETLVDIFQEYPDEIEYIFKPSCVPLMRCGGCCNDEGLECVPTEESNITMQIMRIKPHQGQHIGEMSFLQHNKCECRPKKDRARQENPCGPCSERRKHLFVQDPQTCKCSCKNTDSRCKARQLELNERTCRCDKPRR

Compound: COc1ccc(C(O)C(C)Oc2ccc(C3OC(c4ccc(OC(C)C(O)c5ccc6c(c5)OCO6)c(OC)c4)C(C)C3C)cc2OC)cc1OC (stereo not drawn) [Compound 4]
concentration at which complete inhibition of hypoxic activation of HIF-1 is observed (HIF-1 [1]; T47D, pHRE-luc assay): 10 nM
concentration at which hypoxic induction of secreted VEGF protein is completely blocked (secreted VEGF protein [2]): 10 nM
inhibition of VEGF protein levels relative to the hypoxia-induced positive control (secreted VEGF protein [2]): significantly inhibit

IC50 (HIF-1 [1]; Homo sapiens, T47D, read-out: IC50, inhibition of hypoxic activation of HIF-1): 30 nM
interference with the ELISA assay [3]: neither compound interferes
luciferase expression from the control plasmid (pGL3 Control) (pGL3 Control; hypoxia experiment (FIG. 3)): No statistically significant difference
Compound: COc1cc(C(O)C(C)Oc2ccc(C3OC(c4ccc(OC(C)C(O)c5ccc6c(c5)OCO6)c(OC)c4)C(C)C3C)cc2OC)ccc1O (stereo not drawn) [Compound 1]
concentration at which complete inhibition of hypoxic activation of HIF-1 is observed (HIF-1 [1]; T47D, pHRE-luc assay): 100 nM
reduction of secreted VEGF protein induced by hypoxia (secreted VEGF protein [2]): statistically significant reduction
inhibition at 1 µM (HIF-1 [4]): 45%
luciferase expression from the pGL3-Control plasmid (pGL3 Control; 1,10-phenanthroline experiment (FIG. 5)): Neither compound exerts significant effect

Compound: COc1ccc(C(O)C(C)Oc2ccc(C3OC(c4ccc(OC)c(OC)c4)C(C)C3C)cc2OC)cc1OC (stereo not drawn) [Compound 5]
concentration at which complete inhibition of hypoxic activation of HIF-1 is observed (HIF-1 [1]; T47D, pHRE-luc assay): 100 nM
concentration at which hypoxic induction of secreted VEGF protein is completely blocked (secreted VEGF protein [2]): 100 nM
inhibition of VEGF protein levels relative to the hypoxia-induced positive control (secreted VEGF protein [2]): significantly inhibit
inhibition at 0.01 µM (secreted VEGF protein [2]; Homo sapiens, 10 nM): 60%

Compound: COc1ccc(C(O)C(C)Oc2ccc(C3OC(c4ccc(OC(C)C(O)c5ccc(OC)c(OC)c5)c(OC)c4)C(C)C3C)cc2OC)cc1OC (stereo not drawn) [Compound 3]
concentration at which complete inhibition of hypoxic activation of HIF-1 is observed (HIF-1 [1]; T47D, pHRE-luc assay): 10 nM
concentration at which hypoxic induction of secreted VEGF protein is completely blocked (secreted VEGF protein [2]): 10 nM
inhibition of VEGF protein levels relative to the hypoxia-induced positive control (secreted VEGF protein [2]): significantly inhibit

IC50 (HIF-1 [1]; read-out: IC50 for inhibition of hypoxia-induced HIF-1 activation, T47D cells, hypoxic conditions 16 hr): 2000 nM
Compound: COc1cccc(-c2cc(=O)c3ccccc3o2)c1N [PD98059, reference compound]
concentration for 70% inhibition of hypoxic activation of HIF-1 (HIF-1 [1]): 10 µM
concentration at which hypoxic activation of HIF-1 is completely inhibited (HIF-1 [1]; T47D, pHRE-luc assay): 100 µM
reduction of secreted VEGF protein induced by hypoxia (secreted VEGF protein [2]): only 1 and 2 treatments lead to statistically significant reduction
cytotoxicity (T47D cells): no significant cytotoxicity

Compound: c1cnc2c(c1)ccc1cccnc12 [1,10-phenanthroline, reference compound]
secreted VEGF protein level in T47D cells (secreted VEGF protein [5]): significantly induces
HIF-1β protein level (HIF-1β protein): no significant effect

IC50 (HIF-1 [1]; Homo sapiens, T47D, 16 h, read-out: IC50 for inhibition of hypoxia-induced HIF-1 activation): 1000 nM
Compound: O=c1c(-c2ccc(O)cc2)coc2cc(O)cc(O)c12 [genistein, reference compound]
concentration for 70% inhibition of hypoxic activation of HIF-1 (HIF-1 [1]): 10 µM
cytotoxicity at 100 μM [6]: 50%
